Experimental data reported in US20170334919A1, “2-((4-AMINO-3-(3-FLUORO-5-HYDROXYPHENYL)-1H-PYRAZOLO[3,4-D]PYRIMIDIN-1 -YL)METHYL)-3-(2-(TRIFLUORO-MET HYL)BENZYL)QUINAZOLIN-4(3H)-ONE DERIVATIVES AND THEIR USE AS PHOSPHOINOSITIDE 3-KINASE INHIBITORS” (RESPIVERT LTD., priority 2013, published 2017).

Key:
[1] = tested on: PI3K δ (Akt phosphorylation in d-U937 cells); assay: PI3K δ cell based assay: H2O2-induced Akt phosphorylation in d-U937 cells; conditions: Homo sapiens, dU937; inhibition of induced Akt phosphorylation; read-out: Cellular Activity REC50 values in d-U937 cells, H2O2 stimulus
Protocol: As a means of assessing PI3K δ activation in response to stimuli, the phosphorylation status of the protein, Akt, a downstream product of PI3Kδ, signaling was determined.
U937 cells, obtained from a human, leukemic, monocyte lymphoma cell line, were differentiated to macrophage-type cells by incubation with PMA (100 ng/mL) for 48 to 72 hr. Cells were then pre-incubated with either the test compound or vehicle for 2 hr and were then stimulated briefly by exposure to H2O2 (10 mM, 5-7 min) and the reaction stopped by replacing the media with 4% formaldehyde solution. […] After washing with buffer (PBS containing 0.1% Triton X-100), cells were incubated with an HRP-conjugated secondary antibody (Dako) and the resultant signal was determined colorimetrically (OD: 450 nm with a reference wavelength of 655 nm) using TMB substrate (substrate reagent pack supplied by R&D Systems, Inc.).
This reaction was stopped by the addition of H2SO4 solution (100 μL). […] After washing with buffer (PBS containing 0.1% Triton X-100) 1% SDS (100 μL) was added to each well and the plates were shaken lightly for 1 hr prior to measuring the absorbance at 595 nm (Varioskan® Flash, Thermo-Fisher Scientific). The measured OD450-655 readings were corrected for cell number by dividing the OD450-655 by the D595 readings. The ratio of pAkt signal to total Akt signal was used to quantitate the extent of PI3K δ activation. […]

[2] = tested on: LPS-induced airway neutrophilia in rats; assay: LPS-induced airway neutrophil accumulation in rats; format: in vivo
Protocol: Non-fasted rats were dosed with either vehicle or the test compound by intra-tracheal administration (dose volume 100 μL) at time points T=−2 h, −8 h, or −12 h with respect to the start of LPS treatment. The LPS solution (0.3 mg/mL) was aerosolised using a De Vibliss ultrasonic nebuliser 2000 (7 mL during 30 min). At eight hr after LPS challenge, the trachea was cannulated and bronchoalveolar lavage fluid (BALF) extracted by infusing and then withdrawing PBS (1 mL) into the lungs via the tracheal catheter. This procedure was repeated to provide approximately 2 mL of lavage fluid.
Total cell numbers in the BALF samples were measured using a Countess automated cell counter (Invitrogen). Cytospin smears of the BALF samples were prepared by centrifugation at 1200 rpm for 2 min at RT and stained using a DiffQuik stain system (Dade Behring) for differential cell counts. Cells were counted using oil immersion microscopy. Data are expressed as neutrophil number of cells per mL of BALF (mean±S.E.M).

[3] = tested on: ovalbumin-induced airway eosinophilia and neutrophilia in ovalbumin sensitized mice; assay: Ovalbumin-induced airway eosinophil and neutrophil accumulation in mice; format: in vivo, BALB/c mice; conditions: 2 hr prior to final OVA challenge
Protocol: BALB/c mice (6-8 weeks old) were immunized with OVA (10 μg/mouse i.p.) on days 0 and 7. In order to elicit a local inflammatory response in the lung, mice were repeatedly challenged between days 13-15 with a nebulised solution of ovalbumin (10 mg/mL, 30 min exposure, De Vilibiss Ultraneb 2000). On day 17 each animal received via intra-tracheal administration of either vehicle or test compound 2 hr prior to the final OVA challenge. Animals were anaesthetized 8 hr later before undergoing a tracheotomy. BAL was obtained by instilling PBS (1 mL) into the lungs, which was then withdrawn. This procedure was repeated to provide approximately 2 mL of lavage fluid. Total cell numbers in the BALF samples were measured using a haemocytometer. Cytospin smears of the BALF samples were prepared by centrifugation at 200 rpm for 5 min at RT and stained using a DiffQuik stain system (Dade Behring) for differential cell counts. Cells were counted using oil immersion microscopy. Data is expressed as differential number of cells per mL of […] (mean±S.E.M).

[4] = 0.2 mg/mL intra-tracheal, pre-dose time 12 h

With COCCOCCOCC#Cc1cccc2nc(Cn3nc(-c4cc(O)cc(F)c4)c4c(N)ncnc43)n(Cc3ccccc3C(F)(F)F)c(=O)c12 [Compound (I), 2-((4-Amino-3-(3-fluoro-5-hydroxyphenyl)-1H-pyrazolo[3,4-d]pyrimidin-1-yl)methyl)-5-(3-(2-(2-methoxyethoxy)ethoxy)prop-1-yn-1-yl)-3-(2-(trifluoromethyl)benzyl)quinazolin-4(3H)-one] as the compound, how does the EC50 [1] read?
The EC50 was 7.4 nM.

What about the “Neutrophil numbers in BALF, % inhibition” value ([2]; 0.05 mg/mL intra-tracheal, pre-dose time 2 hr) of the same compound?
The value was 2.3 (9) %.

And the “Neutrophil numbers in BALF, % inhibition” value ([2]; 0.2 mg/mL intra-tracheal, pre-dose time 2 hr)?
Its value is 1.6 (58) %.

And the “Neutrophil numbers in BALF, % inhibition” value ([2]; 0.2 mg/mL intra-tracheal, pre-dose time 8 hr)?
The value was 33%.

What about the “Neutrophil numbers in BALF (mean ± SEM)” value [2, 4] of the same compound?
Its value is 13.6 ± 2.7 ×10^5/mL.

What about the “Neutrophil numbers in BALF, % inhibition” value [2, 4] of the same compound?
Its value is 10%.

What about the Neutrophil numbers in BALF, % inhibition ([2]; 1.0 mg/mL intra-tracheal, pre-dose time 2 hr) of the same compound?
The Neutrophil numbers in BALF, % inhibition was 73%.

And the “Cell numbers in BALF, Eosinophils, % inhibition” value ([3]; 0.05 mg/mL intra-tracheal)?
Its value is 3.2 (20) %.

And the “Cell numbers in BALF, Neutrophils, % inhibition” value ([3]; 0.05 mg/mL intra-tracheal)?
Its value is 0.4 (18) %.

And the “Cell numbers in BALF, Eosinophils, % inhibition” value ([3]; 0.2 mg/mL intra-tracheal)?
Its value is 0.9 (85) %.

What about the “Cell numbers in BALF, Neutrophils, % inhibition” value ([3]; 0.2 mg/mL intra-tracheal) of the same compound?
The value was 0.5 (70) %.

And the Cell numbers in BALF, Eosinophils, % inhibition ([3]; 1 mg/mL intra-tracheal)?
Its Cell numbers in BALF, Eosinophils, % inhibition is 91%.

And the Cell numbers in BALF, Neutrophils, % inhibition ([3]; 1 mg/mL intra-tracheal)?
The Cell numbers in BALF, Neutrophils, % inhibition was 80%.
